Counter-ions that a name gives are not always drawn.
Assay: Stability test (storage stability, residual amount by HPLC)
Type: physicochemical
Conditions: relative to initial content (100%)
Description: In the stability test, the crystals of the compound (I) of the present invention prepared in Example 1 and as reference, the amorphous powder (trifluoroacetate salt) of compound (I) described in Example 35 of the specification of Japanese Patent Application Publication No. Hei 10-330373 were used. These compounds were stored separately at 40° C. in a desiccator with a relative humidity of 75% for 56 days (8 weeks), and the content of these compounds was measured on 14 (2 weeks), 28 (4 weeks) and 56 days (8 weeks) after the initiation of the storage.
Furthermore, these compounds were also stored separately at 60° C. in a desiccator with silica gel for 56 days (8 weeks), and the content of these compounds was measured in the same manner as that described above.
The contents of these compounds were determined quantitatively with high performance liquid chromatography (HPLC), and the amount of the remaining compounds (%) at each sampling point was calculated based on the initial content (100%) determined immediately before the storage.

[1] = stored at 40° C. in a desiccator with a relative humidity of 75%, 14 days
[2] = stored at 40° C. in a desiccator with a relative humidity of 75%, 28 days
[3] = stored at 40° C. in a desiccator with a relative humidity of 75%, 56 days
[4] = stored at 60° C. in a desiccator with silica gel, 14 days
[5] = stored at 60° C. in a desiccator with silica gel, 28 days
[6] = stored at 60° C. in a desiccator with silica gel, 56 days

CCCCCCCC(=O)OC[C@@H](O)[C@@H](OC)[C@@H]1OC(C(=O)O)=C[C@H](NC(=N)N)[C@H]1NC(C)=O [Hydrated crystal of compound (I), 5-Acetamido-4-guanidino-9-O-octanoyl-2,3,4,5-tetradeoxy-7-O-methyl-D-glycero-D-galacto-non-2-enopyranosonic Acid Hydrate in Crystalline Form]
Residual amount (amount of the remaining compound) [1]: 99.8% | Residual amount (amount of the remaining compound) [2]: 100.2% | Residual amount (amount of the remaining compound) [3]: 100.3% | Residual amount (amount of the remaining compound) (stored at 40° C. in a desiccator with a relative humidity of 75%, 56 days, listed as crystals (hydrated crystals) of compound (I)): 100% | Residual amount (amount of the remaining compound) [4]: 99.9% | Residual amount (amount of the remaining compound) [5]: 100.6% | Residual amount (amount of the remaining compound) [6]: 99.6% | Residual amount (amount of the remaining compound) (stored at 60° C. in a desiccator with silica gel, 56 days, listed as crystals (hydrated crystals) of compound (I)): more than 99%

CCCCCCCC(=O)OC[C@@H](O)[C@@H](OC)[C@@H]1OC(C(=O)O)=C[C@H](NC(=N)N)[C@H]1NC(C)=O [Amorphous powder of compound (I), trifluoroacetate salt of 5-acetamido-4-guanidino-9-O-octanoyl-2,3,4,5-tetradeoxy-7-O-methyl-D-glycero-D-galacto-non-2-enopyranosonic acid]
Residual amount (amount of the remaining compound) [1]: 38.5% | Residual amount (amount of the remaining compound) [2]: 27.2% | Residual amount (amount of the remaining compound) [3]: 10.2% | Residual amount (amount of the remaining compound) (stored at 40° C. in a desiccator with a relative humidity of 75%, 56 days, listed as amorphous powder (trifluoacetate salt) of compound (I)): 10.2% | Residual amount (amount of the remaining compound) [4]: 95.7% | Residual amount (amount of the remaining compound) [5]: 92.9% | Residual amount (amount of the remaining compound) [6]: 89.0% | Residual amount (amount of the remaining compound) (stored at 60° C. in a desiccator with silica gel, 56 days, listed as amorphous powder (trifluoacetate salt) of compound (I)): 89%

From patent publication US20030105158A1, “Hydrates of a neuraminic acid compound and crystalline forms thereof” (SANKYO COMPANY, LIMITED, priority 2000, published 2003)
